Literature values as cited in US20130327676A1, “Packaging of Solid Pharmaceutical Preparations Containing the Active Substance Glyceryl Trinitrate” (G. Pohl-Boskamp GmbH & Co. KG, priority 2011, published 2013).

How the values were obtained:
[1] = at 20° C.

O=[N+]([O-])OCC(CO[N+](=O)[O-])O[N+](=O)[O-] [GTN, glyceryl trinitrate]
active substance originally contained in the tablets found in the polyethylene (polyethylene sealing layer of the packaging material): 84%
active substance remaining in tablets following storage, of originally contained (tablets packaged individually in aluminum foil films with polyethylene sealing layer): less than 10%
vapor pressure [1]: 0.25 Pa
